The supplement of paper PMC6045584
± gives the standard deviation of the averaged measurements.

What was measured:
[1] = compound: C[C@]12CC[C@H](O)CC1=CC[C@@H]1[C@@H]2CC[C@]2(C)C(c3cccnc3)=CC[C@@H]12 [ABIRATERONE]; assay: surviving fraction relative to DMSO-only wells; higher = less growth inhibition; settings: exposure time: 5 days
Procedure, shortened: (§1)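 Inhibitors at 0.5, 1, 5, 10, 50, 100, 500 and 1000 nM were applied continuously for five days to tumour cell lines seeded in log phase at 250–500 cells per well in 384-well plates 24 hours earlier. Viability was measured by CellTiter-Glo luminescence and expressed as surviving fraction relative to the median of DMSO-only wells. Luminescence was taken after 10 minutes at room temperature.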

[2] = compound: CCn1c(C(=O)N(C2CC2)C2CC2)cc2c3c(ncn3C)c(Nc3cc(C)n(C)n3)nc21; assay: as above; settings: exposure time: 5 days
Procedure, shortened: as §1

| Test System | surviving fraction ([1]; 0.5 nM) | surviving fraction ([1]; 1 nM) | surviving fraction ([1]; 5 nM) | surviving fraction ([1]; 10 nM) | surviving fraction ([1]; 50 nM) | surviving fraction ([1]; 100 nM) | surviving fraction ([1]; 500 nM) | surviving fraction ([1]; 1000 nM) | surviving fraction ([2]; 0.5 nM) | surviving fraction ([2]; 1 nM) | surviving fraction ([2]; 5 nM) | surviving fraction ([2]; 10 nM) | surviving fraction ([2]; 50 nM) | surviving fraction ([2]; 100 nM) | surviving fraction ([2]; 500 nM) | surviving fraction ([2]; 1000 nM) |
| --- | --- | --- | --- | --- | --- | --- | --- | --- | --- | --- | --- | --- | --- | --- | --- | --- |
| HCC1395 BREAST | 1.07 ± 0.11 | 1.07 ± 0.015 | 1.14 ± 0.059 | 1.13 ± 0.021 | 1.08 ± 0.12 | 1.11 ± 0.13 | 1.146 ± 0.0049 | 1.19 ± 0.047 | 1.15 ± 0.067 | 1.06 ± 0.14 | 1.25 ± 0.057 | 1.16 ± 0.1 | 1.216 ± 0.0056 | 1.12 ± 0.21 | 0.973 ± 0.13 | 1.1 ± 0.16 |
| NOS1 BONE | 1.27 ± 0.16 | 1.05 ± 0.044 | 1.23 ± 0.089 | 1.22 ± 0.099 | 1.19 ± 0.15 | 1.24 ± 0.17 | 1.2 ± 0.095 | 0.999 ± 0.04 | 1.09 ± 0.11 | 1.13 ± 0.12 | 1.14 ± 0.035 | 1.04 ± 0.1 | 1.12 ± 0.15 | 1.13 ± 0.088 | 1.06 ± 0.2 | 0.884 ± 0.16 |
| RDES SOFT TISSUE | 1.19 ± 0.14 | 1.18 ± 0.12 | 1.21 ± 0.15 | 1.13 ± 0.11 | 1.2 ± 0.25 | 1.22 ± 0.25 | 1.28 ± 0.23 | 1.36 ± 0.27 | 1.24 ± 0.11 | 1.2 ± 0.16 | 1.33 ± 0.071 | 1.27 ± 0.024 | 1.26 ± 0.12 | 1.19 ± 0.13 | 1.22 ± 0.13 | 1.39 ± 0.12 |
| MDAMB453 BREAST | 1.05 ± 0.053 | 1.04 ± 0.13 | 1.15 ± 0.028 | 1.06 ± 0.072 | 1.09 ± 0.086 | 1.08 ± 0.0082 | 1.01 ± 0.029 | 1.006 ± 0.0072 | 1.02 ± 0.033 | 0.992 ± 0.039 | 0.983 ± 0.02 | 0.986 ± 0.028 | 1.048 ± 0.0087 | 1.05 ± 0.033 | 1.04 ± 0.015 | 1.02 ± 0.028 |
| NY BONE | 1.05 ± 0.021 | 1.06 ± 0.029 | 1.08 ± 0.034 | 1.1 ± 0.059 | 1.105 ± 0.011 | 1.09 ± 0.032 | 1.08 ± 0.027 | 1.06 ± 0.028 | 0.934 ± 0.0062 | 0.932 ± 0.038 | 1.002 ± 0.01 | 0.975 ± 0.026 | 1.02 ± 0.022 | 0.99 ± 0.013 | 0.922 ± 0.025 | 0.915 ± 0.018 |
| HOS BONE | 1.03 ± 0.02 | 1.025 ± 0.0032 | 1.08 ± 0.029 | 1.02 ± 0.014 | 1.09 ± 0.019 | 1.095 ± 0.0072 | 1.08 ± 0.028 | 1.06 ± 0.025 | 1 ± 0.0066 | 0.9927 ± 0.0081 | 0.994 ± 0.023 | 0.997 ± 0.0046 | 1.047 ± 0.0078 | 1.037 ± 0.0023 | 1.02 ± 0.013 | 0.96 ± 0.018 |
| CAL51 BREAST | 0.988 ± 0.068 | 0.984 ± 0.019 | 1.03 ± 0.043 | 0.964 ± 0.039 | 1.02 ± 0.048 | 1.04 ± 0.044 | 1.02 ± 0.048 | 1.02 ± 0.028 | 0.972 ± 0.049 | 0.985 ± 0.034 | 0.98 ± 0.036 | 0.976 ± 0.043 | 1.02 ± 0.043 | 1.06 ± 0.031 | 1.02 ± 0.034 | 0.99 ± 0.015 |
| MDAMB134 BREAST | 1.12 ± 0.043 | 0.896 ± 0.18 | 1.36 ± 0.096 | 0.943 ± 0.063 | 1.12 ± 0.049 | 1.15 ± 0.37 | 0.927 ± 0.13 | 0.965 ± 0.098 | 1.16 ± 0.2 | 1.07 ± 0.086 | 1.15 ± 0.23 | 0.87 ± 0.014 | 1.04 ± 0.14 | 0.986 ± 0.14 | 0.907 ± 0.0014 | 0.976 ± 0.025 |
| KPD BONE | 0.966 ± 0.05 | 0.993 ± 0.054 | 1.02 ± 0.012 | 1.07 ± 0.043 | 1.07 ± 0.054 | 1.09 ± 0.041 | 1.01 ± 0.035 | 0.976 ± 0.054 | 1.01 ± 0.074 | 0.951 ± 0.089 | 1.01 ± 0.043 | 0.991 ± 0.074 | 1.04 ± 0.047 | 1.01 ± 0.14 | 0.945 ± 0.017 | 0.99 ± 0.056 |
| MG63 BONE | 1.09 ± 0.022 | 1.06 ± 0.038 | 1.11 ± 0.057 | 1.09 ± 0.042 | 1.09 ± 0.021 | 1.07 ± 0.045 | 1.05 ± 0.041 | 1.03 ± 0.017 | 0.9877 ± 0.0096 | 0.944 ± 0.016 | 0.992 ± 0.02 | 0.981 ± 0.031 | 1.01 ± 0.011 | 0.98 ± 0.015 | 0.928 ± 0.013 | 0.891 ± 0.021 |
| SG28 HEADNECK | 1.11 ± 0.046 | 1.08 ± 0.11 | 1.02 ± 0.048 | 1.04 ± 0.12 | 1.02 ± 0.18 | 1.07 ± 0.043 | 1.01 ± 0.066 | 1.04 ± 0.13 | 1.06 ± 0.11 | 1.05 ± 0.038 | 1.02 ± 0.025 | 1.02 ± 0.046 | 1.13 ± 0.043 | 0.954 ± 0.096 | 0.951 ± 0.081 | 0.95 ± 0.093 |
| CME SYNOVIAL | 1.28 ± 0.1 | 1.38 ± 0.15 | 1.43 ± 0.15 | 1.29 ± 0.086 | 1.37 ± 0.17 | 1.37 ± 0.029 | 1.34 ± 0.18 | 1.2 ± 0.18 | 1.27 ± 0.18 | 1.22 ± 0.11 | 1.29 ± 0.15 | 1.22 ± 0.064 | 1.294 ± 0.004 | 1.22 ± 0.072 | 1.21 ± 0.11 | 1.09 ± 0.06 |
| MDAMB361 BREAST | 0.881 ± 0.035 | 0.872 ± 0.096 | 0.82 ± 0.045 | 0.825 ± 0.076 | 1.53 ± 0.14 | 0.91 ± 0.04 | 0.837 ± 0.072 | 0.719 ± 0.07 | 0.838 ± 0.094 | 0.87 ± 0.039 | 0.829 ± 0.083 | 0.812 ± 0.049 | 0.867 ± 0.055 | 0.8863 ± 0.0064 | 0.93 ± 0.083 | 0.842 ± 0.038 |
| MCF7 BREAST | 0.961 ± 0.071 | 0.917 ± 0.059 | 0.902 ± 0.098 | 0.945 ± 0.027 | 1.01 ± 0.024 | 0.874 ± 0.039 | 1.05 ± 0.066 | 0.921 ± 0.017 | 0.815 ± 0.049 | 0.841 ± 0.028 | 0.844 ± 0.025 | 0.828 ± 0.03 | 0.913 ± 0.048 | 0.862 ± 0.026 | 0.889 ± 0.065 | 0.854 ± 0.039 |
| CAL120 BREAST | 0.954 ± 0.011 | 1 ± 0.015 | 1.01 ± 0.013 | 1.01 ± 0.011 | 1.04 ± 0.059 | 1.04 ± 0.041 | 1.05 ± 0.028 | 0.988 ± 0.037 | 0.876 ± 0.038 | 0.911 ± 0.018 | 0.937 ± 0.036 | 0.924 ± 0.056 | 0.962 ± 0.0098 | 0.94 ± 0.036 | 0.941 ± 0.026 | 0.897 ± 0.012 |
| HU09 BONE | 1.02 ± 0.086 | 1.11 ± 0.048 | 1.17 ± 0.18 | 1.12 ± 0.14 | 1.21 ± 0.086 | 1.18 ± 0.13 | 1.03 ± 0.089 | 1.05 ± 0.12 | 1.06 ± 0.09 | 1.03 ± 0.11 | 1.09 ± 0.081 | 1.18 ± 0.22 | 1.25 ± 0.32 | 1 ± 0.072 | 0.915 ± 0.091 | 0.932 ± 0.064 |
| JIMT1 BREAST | 0.9997 ± 0.0033 | 0.965 ± 0.027 | 0.981 ± 0.02 | 0.962 ± 0.013 | 1.08 ± 0.047 | 1.08 ± 0.032 | 1.02 ± 0.042 | 0.929 ± 0.012 | 0.975 ± 0.024 | 0.969 ± 0.034 | 0.973 ± 0.026 | 1.01 ± 0.013 | 1.07 ± 0.046 | 1.06 ± 0.02 | 1.06 ± 0.014 | 1.06 ± 0.0097 |
| SG31 HEADNECK | 1.21 ± 0.14 | 1.11 ± 0.19 | 1.09 ± 0.12 | 0.866 ± 0.035 | 1.06 ± 0.13 | 0.997 ± 0.03 | 1.13 ± 0.23 | 0.981 ± 0.065 | 1.04 ± 0.069 | 1.02 ± 0.043 | 1.02 ± 0.12 | 0.875 ± 0.1 | 0.949 ± 0.13 | 1.08 ± 0.46 | 0.955 ± 0.16 | 0.961 ± 0.06 |
